“Also recorded” adds a separate entry of the source.
Tested on: EGF-induced AA release in HaCaT keratinocytes
Test: [3H]-Arachidonic acid release assay in EGF-stimulated HaCaT keratinocytes
Format: cell-based, human
Conditions: EGF 100 ng/ml 1 h, dose-dependent, FIG. 2
Procedure: The spontaneously immortalized skin keratinocyte cell line HaCaT (kindly provided by Prof. N. Fusenig, Heidelberg, Deutsches Krebsforschungszentrum, Germany) was cultured in DMEM supplemented with 10% (v/v) FBS, 0.3 mg/ml glutamine, and 0.1 mg/ml gentamicin at 37° C. with 5% CO2 in a humidified atmosphere. For release assays, flow cytometry cell cycle analysis and in vitro cPLA2α activity assay, cells were grown in 48 well trays or in 6 well trays, respectively. Cells were cultivated until 2 days post-confluency; serum starved in DMEM/0.5% FBS overnight and processed at day 3 post-confluence to ensure differentiation. Experiments were performed in DMEM/0.5% FBS. Untreated cells without inducing agents were included for unstimulated control. […] Cells were lysed and 200 μg of total protein was analyzed for cPLA2α activity as described. […] Following washing three times with Tris-buffered saline containing […], immunoreactive proteins were detected by horseradish peroxidase-conjugated secondary antibody (1 hour at room temperature) and SuperSignal® West Femto Maximum Sensivity substrate. Blots were analyzed by the BioRad Image Lab software, and target protein band intensities were normalized to α-tubulin. […] After labelling, the cells were washed twice with phosphate-buffered saline (PBS) containing fatty acid free BSA (2 mg/ml) (fBSA) in order to remove unincorporated radioactivity. […]

CC/C=C\C/C=C\C/C=C\C/C=C\C/C=C\CCSCC(=O)C(F)(F)F [AVX002]
effect on EGF-induced AA-release: completely abrogated; also recorded: reduced AA-release to below basal release in a dose-dependent manner

From patent publication US10085953B2, “Skin cancer treatment” (Avexxin AS, priority 2014, dated 2018)
